In patent US20120277161A1, “INHIBITION OF MULTIPLE CELL ACTIVATION PATHWAYS” (INTER-K PTY LIMITED, priority 2009, published 2012):

What was measured:
c-SRC (h) = c-SRC (h) (Homo sapiens, UniProt P12931); experiment: c-Src kinase activity assay (cell-free, 33P-ATP); assay type: biochemical
Method: In a final reaction volume of 25 μL, c-SRC (h) (5-10 mU) is incubated with 8 mM MOPS pH 7.0, 0.2 mM EDTA, 250 μM KVEKIGEGTYGVVYK (SEQ ID No. 19) (Cdc2 peptide), 10 mM MgAcetate and [γ-33P-ATP] (specific activity approx. 500 cpm/pmol, concentration as required). The reaction is initiated by the addition of the MgATP mix. After incubation for 40 minutes at room temperature, the reaction is stopped by the addition of 5 μL of a 3% phosphoric acid solution. 10 μL of the reaction is then spotted onto a P30 filtermat and washed three times for 5 minutes in 75 mM phosphoric acid and once in methanol prior to drying and scintillation counting.

human Lyn = human Lyn (Homo sapiens, UniProt P07948); experiment: Lyn kinase activity assay; assay type: biochemical; details: 20 μM
Chain of human Lyn (P07948 whole entry): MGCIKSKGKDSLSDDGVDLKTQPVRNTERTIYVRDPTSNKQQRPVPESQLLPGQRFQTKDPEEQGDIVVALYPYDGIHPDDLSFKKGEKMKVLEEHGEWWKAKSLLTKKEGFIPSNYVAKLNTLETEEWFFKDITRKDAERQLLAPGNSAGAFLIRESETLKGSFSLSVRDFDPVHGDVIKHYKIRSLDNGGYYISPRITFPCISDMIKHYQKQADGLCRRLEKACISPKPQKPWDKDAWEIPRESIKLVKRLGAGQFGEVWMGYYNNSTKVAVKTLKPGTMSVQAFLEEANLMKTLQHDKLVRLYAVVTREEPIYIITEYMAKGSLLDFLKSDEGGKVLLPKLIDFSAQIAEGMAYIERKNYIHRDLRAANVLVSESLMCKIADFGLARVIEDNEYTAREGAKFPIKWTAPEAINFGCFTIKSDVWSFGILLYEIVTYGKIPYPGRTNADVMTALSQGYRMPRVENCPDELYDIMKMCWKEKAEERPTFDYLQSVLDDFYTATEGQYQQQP
Method: In a final reaction volume of 25 μl, human Lyn is incubated with the RSKAKNPLYR peptide (SEQ ID No: 6) in 50 mM Tris buffer pH 7.5, 0.1 mM EGTA, 0.1 mM Na3VO4, 1% mercaptoethanol, 0.1 mg/ml poly(Glu,Tyr) 4:1, 10 mM Mg acetate and [γ-33P-ATP] (specific activity approx. 500 cpm/pmol). The reaction was initiated by the addition of the MgATP mix, incubated for 40 minutes at room temperature prior to being stopped and kinase activity assessed by scintillation counting as per the protocol described for c-Src described in Example 1.1.

human Yes = human Yes (Homo sapiens, UniProt P07947); experiment: Yes kinase activity assay; assay type: biochemical; details: 20 μM
Chain of human Yes (P07947 whole entry): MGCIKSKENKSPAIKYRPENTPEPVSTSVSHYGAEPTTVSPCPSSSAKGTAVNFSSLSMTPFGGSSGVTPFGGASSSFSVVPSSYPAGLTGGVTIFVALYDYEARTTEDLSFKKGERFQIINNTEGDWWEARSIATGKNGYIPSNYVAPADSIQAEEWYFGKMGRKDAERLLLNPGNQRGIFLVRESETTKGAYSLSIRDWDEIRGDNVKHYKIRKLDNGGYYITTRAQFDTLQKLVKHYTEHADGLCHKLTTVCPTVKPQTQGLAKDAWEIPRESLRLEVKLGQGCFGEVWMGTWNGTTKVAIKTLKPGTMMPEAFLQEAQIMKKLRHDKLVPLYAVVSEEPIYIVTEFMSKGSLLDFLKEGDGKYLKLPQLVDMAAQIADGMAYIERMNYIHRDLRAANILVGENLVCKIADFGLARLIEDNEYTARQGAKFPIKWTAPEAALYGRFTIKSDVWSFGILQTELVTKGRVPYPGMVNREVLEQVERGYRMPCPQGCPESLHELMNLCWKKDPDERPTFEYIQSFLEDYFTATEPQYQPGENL
Method: In a final reaction volume of 25 μl, human Yes is incubated with the RSKAKNPLYR peptide (SEQ ID No: 6) in 8 mM MOPS buffer pH 7.0, 0.2 mM EDTA, 0.1 mg/ml poly(Glu,Tyr) 4:1, 10 mM Mg acetate and [γ-33P-ATP] (specific activity approx. 500 cpm/pmol). The reaction is initiated by the addition of the MgATP mix, incubated for 40 minutes at room temperature prior to being stopped and kinase activity assessed by scintillation counting again as per the protocol described for c-Src in Example 1.1.

PKB alpha = PKB alpha (Homo sapiens, UniProt P31749); experiment: PKB kinase activity assay; assay type: biochemical; details: 20 μM, relative to control
Chain of PKB alpha (P31749 whole entry): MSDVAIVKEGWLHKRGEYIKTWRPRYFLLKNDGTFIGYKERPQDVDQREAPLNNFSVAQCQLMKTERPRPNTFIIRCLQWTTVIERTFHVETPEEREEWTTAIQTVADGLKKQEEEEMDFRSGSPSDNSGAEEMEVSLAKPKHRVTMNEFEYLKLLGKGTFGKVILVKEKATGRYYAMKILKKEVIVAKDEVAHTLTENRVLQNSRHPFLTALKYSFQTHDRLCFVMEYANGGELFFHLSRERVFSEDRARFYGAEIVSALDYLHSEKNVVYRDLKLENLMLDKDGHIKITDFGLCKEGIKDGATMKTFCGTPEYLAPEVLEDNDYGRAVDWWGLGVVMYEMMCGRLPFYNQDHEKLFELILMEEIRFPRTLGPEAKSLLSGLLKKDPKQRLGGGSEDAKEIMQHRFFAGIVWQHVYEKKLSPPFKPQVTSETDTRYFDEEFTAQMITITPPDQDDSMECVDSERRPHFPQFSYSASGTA

FAK = FAK (Homo sapiens, UniProt Q05397); experiment: FAK activity; assay type: biochemical; details: 20 μM, data not shown
Chain of FAK (Q05397 whole entry, species assumed): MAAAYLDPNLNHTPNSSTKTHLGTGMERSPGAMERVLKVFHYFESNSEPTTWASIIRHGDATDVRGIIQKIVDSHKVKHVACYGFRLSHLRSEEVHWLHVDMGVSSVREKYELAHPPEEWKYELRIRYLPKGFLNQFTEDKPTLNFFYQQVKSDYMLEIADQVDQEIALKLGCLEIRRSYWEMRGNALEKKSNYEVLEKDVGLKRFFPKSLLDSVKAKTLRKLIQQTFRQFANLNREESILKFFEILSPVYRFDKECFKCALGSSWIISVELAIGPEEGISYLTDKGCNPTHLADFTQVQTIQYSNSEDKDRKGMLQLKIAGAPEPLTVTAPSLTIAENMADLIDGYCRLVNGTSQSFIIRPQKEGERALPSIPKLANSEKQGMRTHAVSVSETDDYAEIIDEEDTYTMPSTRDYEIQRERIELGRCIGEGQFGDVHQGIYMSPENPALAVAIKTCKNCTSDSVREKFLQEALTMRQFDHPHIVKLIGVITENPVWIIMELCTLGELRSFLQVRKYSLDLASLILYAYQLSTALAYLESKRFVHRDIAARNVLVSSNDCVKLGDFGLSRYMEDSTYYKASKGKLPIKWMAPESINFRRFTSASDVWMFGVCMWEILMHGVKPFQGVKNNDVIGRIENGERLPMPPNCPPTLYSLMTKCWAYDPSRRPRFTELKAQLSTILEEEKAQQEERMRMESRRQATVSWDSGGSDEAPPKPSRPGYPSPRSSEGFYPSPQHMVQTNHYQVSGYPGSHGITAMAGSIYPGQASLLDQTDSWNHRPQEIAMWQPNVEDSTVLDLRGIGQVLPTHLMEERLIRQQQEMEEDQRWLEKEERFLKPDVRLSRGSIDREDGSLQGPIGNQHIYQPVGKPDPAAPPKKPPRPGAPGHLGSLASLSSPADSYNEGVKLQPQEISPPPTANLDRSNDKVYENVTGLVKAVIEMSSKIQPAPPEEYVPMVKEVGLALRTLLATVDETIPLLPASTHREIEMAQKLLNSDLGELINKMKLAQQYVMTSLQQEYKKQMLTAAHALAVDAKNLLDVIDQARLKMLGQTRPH

kinases listed Table 2 = experiment: Kinase dose response study (kinases listed Table 2); assay type: biochemical; details: range over all kinases of Table 2; read-out: IC50 percentage inhibition of activity for all the kinases
Method: In a dose response study, the inhibition of the activity of the kinases listed Table 2 at increasing concentrations of dendrimer Dend 10-10(4)DP (see Example 2.3) was assessed employing the treatment protocols described in Examples 1 to 3. As shown in the table, inhibition of kinase activity was obtained by the dendrimer at all the concentrations tested. The IC50 percentage inhibition of activity for all the kinases was in the range of from 0.25-2.0 μM. The results shown in Table 2 are percentage inhibition relative to controls. Comparative dose results for 1 μM dendrimer Dend 10-10(4) are also shown.

[1] = system: HT-29 human colon cancer cells; experiment: Apoptosis assay (FITC Annexin V / PI, FACS); assay type: cell-based; details: 10 μM, 4 hours; FIG. 11
Method: The cells were harvested by trypsinisation, washed twice in HBSS and counted counted using Trypan Blue staining. The cells were then re-suspended in the appropriate culture medium to a concentration of 1×10^6 cells/mL. […] The cells were allowed to attach to the plate for 1 h. […] Cells were then harvested by trypsinisation, washed twice in cold phosphate buffered saline (PBS) and then resuspended in 1× binding buffer. 100 μL of the cell suspensions containing 1×10^5 cells were transferred to a 5 mL plastic tube. […] Three controls were also analysed: unstained cells, cells stained only with Annexin V and cells stained only with PI. The data was presented as the percentage of cells being either Annexin V positive only (excluding PI positive cells), PI positive (total) or Annexin V and PI positive (double stain).

[2] = system: MCF-7 breast cancer cells; experiment: MTT growth/proliferation, MCF-7 cells; assay type: cell-based; details: 48 hours
Method: (§1) In this study, the cells were incubated in the presence of the dendrimer for 48 hours. Cell lines were maintained at 37° C. in a humid atmosphere containing 5% CO2. Cells were passaged at pre-confluent densities using a solution containing 0.05% trypsin and 0.5 mM EDTA (Invitrogen).

[3] = system: DU145 prostate cancer cells; experiment: MTT growth/proliferation, DU145 cells; assay type: cell-based; details: 48 hours
Method: as §1

HL60 leukemic cells = experiment: MTT proliferation, HL60 cells; assay type: cell-based; details: MTT assay, data not shown; read-out: IC50 inhibition of proliferation of HL60 leukemic cells
PI3K gamma = PI3K gamma (Homo sapiens, UniProt P48736); experiment: PI3K HTRF activity assay; assay type: biochemical; details: final concentration 50 μM
Chain of PI3K gamma (P48736 whole entry, species assumed, the tested form may be a part): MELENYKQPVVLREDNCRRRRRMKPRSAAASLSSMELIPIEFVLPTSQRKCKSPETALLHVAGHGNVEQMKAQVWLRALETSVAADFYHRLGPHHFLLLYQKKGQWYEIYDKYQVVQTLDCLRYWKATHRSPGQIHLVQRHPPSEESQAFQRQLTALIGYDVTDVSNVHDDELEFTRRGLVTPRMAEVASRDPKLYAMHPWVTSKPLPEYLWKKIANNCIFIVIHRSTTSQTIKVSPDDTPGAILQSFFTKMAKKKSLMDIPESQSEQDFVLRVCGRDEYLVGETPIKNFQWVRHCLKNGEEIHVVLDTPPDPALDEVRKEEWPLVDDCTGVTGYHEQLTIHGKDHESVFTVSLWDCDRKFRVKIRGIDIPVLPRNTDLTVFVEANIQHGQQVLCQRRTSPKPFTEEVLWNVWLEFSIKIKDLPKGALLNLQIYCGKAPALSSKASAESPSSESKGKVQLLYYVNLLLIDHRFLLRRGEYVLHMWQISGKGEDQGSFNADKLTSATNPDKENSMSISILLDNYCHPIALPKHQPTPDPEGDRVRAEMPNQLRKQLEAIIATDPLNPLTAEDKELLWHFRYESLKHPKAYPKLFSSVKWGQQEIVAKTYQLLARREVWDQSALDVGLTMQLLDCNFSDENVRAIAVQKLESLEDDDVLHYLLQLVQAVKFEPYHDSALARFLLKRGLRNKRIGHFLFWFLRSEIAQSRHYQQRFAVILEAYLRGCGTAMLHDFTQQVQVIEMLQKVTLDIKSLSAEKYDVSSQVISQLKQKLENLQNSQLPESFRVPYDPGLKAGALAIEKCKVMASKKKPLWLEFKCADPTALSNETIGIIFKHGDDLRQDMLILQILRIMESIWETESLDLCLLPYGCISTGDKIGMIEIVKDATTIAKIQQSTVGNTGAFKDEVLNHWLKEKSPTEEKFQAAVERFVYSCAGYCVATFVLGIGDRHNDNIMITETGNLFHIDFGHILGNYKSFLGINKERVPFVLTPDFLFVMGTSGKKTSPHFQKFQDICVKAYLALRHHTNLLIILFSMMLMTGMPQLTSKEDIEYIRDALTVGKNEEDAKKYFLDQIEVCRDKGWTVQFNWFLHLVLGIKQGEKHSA
Method: In a final reaction volume of 20 μL, the test PI3K is incubated in assay buffer containing 10 μM phosphatidylinositol-4,5-bisphosphate and MgATP. The reaction is initiated by the addition of the MgATP mix. After incubation for 30 minutes at room temperature, the reaction is stopped by the addition of 5 μL of stop solution containing EDTA and biotinylated phosphatidylinositol-3,4,5-trisphosphate. Finally, 5 μL of detection buffer is added (containing europium-labelled anti-GST monoclonal antibody, GST-tagged GRP1 PH domain and streptavidin-allophycocyanin). The test plate is then read in time-resolved fluorescence mode and the homogenous time-resolved fluorescence (HTRF) signal is determined according to the formula HTRF=10000×(Em665 nm/Em620 nm).

| inhibition of the activity of c-Lyn relative to controls (human Lyn) [%] | inhibition of the activity of c-Yes relative to controls (human Yes) [%] | % Kinase inhibition PKB alpha (PKB alpha) [%] | effect on activity of FAK (FAK) | IC50 (kinases listed Table 2) [nM] | IC50 (HL60 leukemic cells) [nM] | Compound | inhibition of c-Src activity compared to peptide RSKAKNPLYR alone (c-SRC (h)) | apoptosis in HT-29 cells [1] | inhibition of growth/proliferation of MCF-7 cells [2] | inhibition of growth/proliferation of DU145 cells [3] | PIK3 gamma % activity relative to control (PI3K gamma) [%] |
| --- | --- | --- | --- | --- | --- | --- | --- | --- | --- | --- | --- |
| 96 | 99 | 29 | without any effect | 250 to 2000 | 2000 | Dend 10-10(4) whose RSKAKNPLYR peptides are entirely D-amino acids and pegylated with two ethylene glycol units [Dend 10-10(4)DP] | no increase in the inhibition of c-Src activity | substantial level of apoptosis | inhibited growth/proliferation | inhibited growth/proliferation |  |
|  |  |  |  |  |  | CC(C)C[C@H](NC(=O)[C@@H]1CCCN1C(=O)[C@H](CC(N)=O)NC(=O)[C@H](CCCCN)NC(=O)[C@H](C)NC(=O)[C@H](CCCCN)NC(=O)[C@H](CO)NC(=O)[C@@H](N)CCCNC(=N)N)C(=O)N[C@@H](Cc1ccc(O)cc1)C(=O)N[C@@H](CCCNC(=N)N)C(=O)NCCCC[C@H](NC(=O)[C@H](CCCCNC(=O)[C@H](CCCCNC(=O)[C@H](CCCNC(=N)N)NC(=O)[C@H](Cc1ccc(O)cc1)NC(=O)[C@H](CC(C)C)NC(=O)[C@@H]1CCCN1C(=O)[C@H](CC(N)=O)NC(=O)[C@H](CCCCN)NC(=O)[C@H](C)NC(=O)[C@H](CCCCN)NC(=O)[C@H](CO)NC(=O)[C@@H](N)CCCNC(=N)N)NC(=O)[C@H](CCCNC(=N)N)NC(=O)[C@H](Cc1ccc(O)cc1)NC(=O)[C@H](CC(C)C)NC(=O)[C@@H]1CCCN1C(=O)[C@H](CC(N)=O)NC(=O)[C@H](CCCCN)NC(=O)[C@H](C)NC(=O)[C@H](CCCCN)NC(=O)[C@H](CO)NC(=O)[C@@H](N)CCCNC(=N)N)NC(=O)[C@H](CCCCNC(=O)[C@H](CCCNC(=N)N)NC(=O)[C@H](Cc1ccc(O)cc1)NC(=O)[C@H](CC(C)C)NC(=O)[C@@H]1CCCN1C(=O)[C@H](CC(N)=O)NC(=O)[C@H](CCCCN)NC(=O)[C@H](C)NC(=O)[C@H](CCCCN)NC(=O)[C@H](CO)NC(=O)[C@@H](N)CCCNC(=N)N)NC(=O)[C@H](CCCNC(=N)N)NC(=O)[C@H](Cc1ccc(O)cc1)NC(=O)[C@H](CC(C)C)NC(=O)[C@@H]1CCCN1C(=O)[C@H](CC(N)=O)NC(=O)[C@H](CCCCN)NC(=O)[C@H](C)NC(=O)[C@H](CCCCN)NC(=O)[C@H](CO)NC(=O)[C@@H](N)CCCNC(=N)N)C(=O)NCCCC[C@H](NC(=O)[C@H](CCCCNC(=O)[C@H](CCCNC(=N)N)NC(=O)[C@H](Cc1ccc(O)cc1)NC(=O)[C@H](CC(C)C)NC(=O)[C@@H]1CCCN1C(=O)[C@H](CC(N)=O)NC(=O)[C@H](CCCCN)NC(=O)[C@H](C)NC(=O)[C@H](CCCCN)NC(=O)[C@H](CO)NC(=O)[C@@H](N)CCCNC(=N)N)NC(=O)[C@H](CCCCNC(=O)[C@H](CCCCNC(=O)[C@H](CCCNC(=N)N)NC(=O)[C@H](Cc1ccc(O)cc1)NC(=O)[C@H](CC(C)C)NC(=O)[C@@H]1CCCN1C(=O)[C@H](CC(N)=O)NC(=O)[C@H](CCCCN)NC(=O)[C@H](C)NC(=O)[C@H](CCCCN)NC(=O)[C@H](CO)NC(=O)[C@@H](N)CCCNC(=N)N)NC(=O)[C@H](CCCNC(=N)N)NC(=O)[C@H](Cc1ccc(O)cc1)NC(=O)[C@H](CC(C)C)NC(=O)[C@@H]1CCCN1C(=O)[C@H](CC(N)=O)NC(=O)[C@H](CCCCN)NC(=O)[C@H](C)NC(=O)[C@H](CCCCN)NC(=O)[C@H](CO)NC(=O)[C@@H](N)CCCNC(=N)N)NC(=O)[C@H](CCCCNC(=O)[C@H](CCCNC(=N)N)NC(=O)[C@H](Cc1ccc(O)cc1)NC(=O)[C@H](CC(C)C)NC(=O)[C@@H]1CCCN1C(=O)[C@H](CC(N)=O)NC(=O)[C@H](CCCCN)NC(=O)[C@H](C)NC(=O)[C@H](CCCCN)NC(=O)[C@H](CO)NC(=O)[C@@H](N)CCCNC(=N)N)NC(=O)[C@H](CCCNC(=N)N)NC(=O)[C@H](Cc1ccc(O)cc1)NC(=O)[C@H](CC(C)C)NC(=O)[C@@H]1CCCN1C(=O)[C@H](CC(N)=O)NC(=O)[C@H](CCCCN)NC(=O)[C@H](C)NC(=O)[C@H](CCCCN)NC(=O)[C@H](CO)NC(=O)[C@@H](N)CCCNC(=N)N)C(=O)NCCC(N)=O [Dend 10-10(4)] |  |  |  |  | 11 |
